Test results published in PubChem BioAssay (NCI).
“And” between values parts separate entries of the source, which are not always exact repeats. Equal values may be shown once.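 1) Cells in 96-well plates. 2) Compound, 48 h, 5 concentrations. 3) Linear interpolation between surrounding doses. 4) Unreached endpoint = highest concentration. Abbreviation: GI50, concentration required for 50% inhibition of growth. TGI: total growth inhibition.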

Assays:
Experiment in all cases: NCI anticancer screen, dose series, 48 h
HCT-116 colon = system: HCT-116 colon
HOP-62 NSCLC = system: HOP-62 NSCLC
M14 melanoma = system: M14 melanoma
SK-MEL-2 melanoma = system: SK-MEL-2 melanoma
SK-MEL-5 melanoma = system: SK-MEL-5 melanoma
SNB-75 CNS = system: SNB-75 CNS
NCI-H226 lung = system: NCI-H226 lung
NCI/ADR-RES ovarian = system: NCI/ADR-RES ovarian
T-47D breast = system: T-47D breast
DU-145 prostate = system: DU-145 prostate

Compound | TGI (HCT-116 colon) [µM] | TGI (HOP-62 NSCLC) [µM] | TGI (M14 melanoma) [µM] | TGI (SK-MEL-2 melanoma) [µM] | TGI (SK-MEL-5 melanoma) | TGI (SNB-75 CNS) [µM] | TGI (NCI-H226 lung) [µM] | TGI (NCI/ADR-RES ovarian) [µM] | TGI (T-47D breast) [µM] | TGI (DU-145 prostate) [µM] | GI50 (SK-MEL-5 melanoma)
CCCCCCCCCCCCNC(=O)CCC(NC(=O)c1ccc(N(C)Cc2cnc3nc(N)nc(N)c3n2)cc1)C(=O)NCCCCCCCCCCCC (stereo unspecified) | > 100 | 95.6 | > 100 | > 100 | > 100 µM | 20.8 | > 100 | > 100 | 61.5 | > 100 | 
S=c1[nH]nc(Cn2c3ccc(Br)cc3c3nc4ccccc4nc32)n1C1CCCCC1 | 40.2 | > 63.5 | > 100 | 54.6 | 49.1 µM | > 100 | > 76.6 | > 92 | > 100 | > 100 | 
O=C(Sc1c(-c2ccccc2)c(=O)n(-c2ccccc2)c(=S)n1-c1ccccc1)c1ccco1 | > 100 | > 100 | > 100 | > 100 | > 100 µM | > 100 | > 100 | > 100 | > 100 | > 100 | 
CCOc1ccc(NCC2CC/C(=C\C=C\c3ccccc3)C2=O)cc1 (stereo unspecified) | 20.4 | > 62 | 29.6 | > 100 | 30.7 µM | 59.9 | > 100 | > 75.3 | 45.3 | > 93.3 | 
COC(=O)C1=C(C(=O)OC)SC(=C2SC3=C(SC(=C4SCCS4)S3)S2)S1 | > 100 | > 100 | > 100 | > 100 | > 100 µM | 6.86 | > 100 | > 100 | > 100 | > 100 | 
O=C(/C=C\Nc1ccccc1O)C(F)(F)F | > 100 | > 100 | > 100 | > 100 | 53.5 µM | > 100 | > 100 | > 100 | > 100 | > 100 | 
Clc1cc(C(c2cc(Cl)sc2Cl)c2cc(Cl)sc2Cl)c(Cl)s1 | > 100 | > 100 | > 100 | > 100 | > 100 µM | > 100 | > 100 | > 100 | > 100 | > 100 | 
CC1(C)OC[C@@H](C[C@H](O)COCc2ccccc2)O1 | > 100 | > 100 | > 100 | > 100 | > 100 µM | > 100 | > 100 | > 100 | > 100 | > 100 | 
COc1cccc(N2C(=O)CS(=O)(=O)C2c2cccc(Oc3ccccc3)c2)c1 (stereo unspecified) | 24.7 | > 100 | 89.7 | 38.8 | 22.6 µM | 84.5 | 76.7 | 77.3 | 81.1 | > 100 | 
CCC(=O)Nc1ccc(NS(=O)(=O)c2ccc(Cl)cc2)cc1 | > 100 | > 100 | > 100 | > 100 | > 100 µM | > 100 | > 100 | > 100 | > 100 | > 100 | 
COc1cc2c3cc1Oc1c(OC)c(OC)cc4c1C(Cc1ccc(O)c(c1)Oc1ccc(cc1)CC3N(C)CC2)CN(C)C4 (stereo unspecified) | 19 | 37.2 | 15 | 33.6 | 26.4 µM | 29.9 | 68.9 | 41.7 | 69.6 | 60.8 | 
O=C(O)C1=NN(c2ccc(S(=O)(=O)O)cc2)C2(C1)C(Cl)C(=O)N2c1nc2ccccc2s1 (stereo unspecified) | 33.1 | 30.5 | 30.3 | 32 | 25.6 µM | 30.7 | 41.4 | 56.2 | 44.8 | 55.9 | 
CC1CCc2sc3nc4n(c(=O)c3c2C1)CC(C)S4 (stereo unspecified) | 67.7 | > 100 | 51.8 | 41.1 | 34.4 µM | 62.4 | 63.8 | > 100 | > 100 | > 100 | 
Nc1nncc2[nH]cnc12 | > 100 | > 100 | > 100 | > 100 | > 100 µM | > 100 | > 100 | > 100 | > 100 | > 100 | 
CC(=O)OCC(=O)O[C@@H]1[C@H]2[C@@H](OC(=O)c3ccccc3)[C@@H](C)C[C@]2(O)[C@H](OC(C)=O)[C@@]2(C)C[C@]1(OC(C)=O)C[C@H]1C(=O)C(C)(C)[C@@H](OC(C)=O)[C@@H]12 | > 25 | > 25 | > 25 | > 25 | > 25 µM | > 25 | > 25 | > 25 | > 25 | > 25 | 
NCCN(CCN(C(=O)Nc1ccccc1)c1ccccc1)C(=O)Nc1ccccc1 | 33.5 | 34.8 | 53.4 | 45.2 | 43.1 µM | 45.4 | 98.6 | > 100 | 90.8 | 40.1 | 

Compound | TGI (HCT-116 colon) [µM] | TGI (HOP-62 NSCLC) [µM] | TGI (M14 melanoma) [µM] | TGI (SK-MEL-2 melanoma) [µM] | TGI (SK-MEL-5 melanoma) | TGI (SNB-75 CNS) [µM] | TGI (NCI-H226 lung) [µM] | TGI (NCI/ADR-RES ovarian) [µM] | TGI (T-47D breast) [µM] | TGI (DU-145 prostate) [µM] | GI50 (SK-MEL-5 melanoma)
CCOC(=O)/C=C(/C=C\COC1CCCCO1)c1ccccc1 (stereo unspecified) | 29.5 | > 100 | > 100 | > 100 | > 100 µM | 69.7 | > 100 | 95.7 | 72.3 | > 100 | 
O=C1CS/C(=N/N=C/c2cn(Cc3ccc(Cl)cc3Cl)c3ccccc23)N1 | > 100 | > 100 | > 100 | 74.7 | > 100 µM | 54.4 | > 100 | > 100 | > 100 | > 100 | 
COc1cc(OC)cc(Oc2nc3cc(F)c(F)cc3nc2-c2ccccc2)c1 | > 100 | > 100 | > 100 | > 100 | > 100 µM | > 100 | > 100 | > 100 | > 100 | > 100 | 
COc1cc2[nH]c(=O)c3cc(-c4ccccc4)cc4c(Cl)nc(c1OC)c2c43 | 12.9 | > 72.7 | > 62.9 | 38.7 | 28 µM | > 60.3 | > 100 | > 38.3 | > 100 | > 100 | 
C[N+]1(CCN=C=NC2CCCCC2)CCOCC1 | > 100 | > 100 | > 100 | > 100 | > 100 µM | > 100 | > 100 | > 100 | > 100 | > 100 | 
CCCCN1C(=O)CC2[C@@H]3CCc4cc(OC)ccc4C3CC[C@]2(C)C1=O (stereo partly specified) | > 10 | > 10 | > 10 | > 10 | > 10 µM | > 10 | > 10 | > 10 | > 10 | > 10 | 
COc1ccc2c(c1)-c1c(c3cc(OC)ccc3n1CCN(C)C)CC2 | 24.4 | 29.9 | 28.5 | 29 | 24.9 µM | 43.4 | 30 | 32 | 41 | 26.7 | 
CC1(C)N=C(N)N=C(N)N1c1cccc(OCc2cccc(N)c2)c1 | > 100 | > 100 | > 100 | > 100 | > 100 µM | > 100 | > 100 | > 100 | > 100 | > 100 | 
Cc1cc(S(=O)(=O)Nc2n[nH]c(Nc3ccccc3)n2)c(SCC(=O)O)cc1Cl | > 100 | > 100 | > 100 | > 100 | > 100 µM | > 100 | > 100 | > 100 | > 100 | > 100 | 
CC(=O)N(C)c1ccc(Nc2ccnc3ccc4nn(C)nc4c23)cc1 | 53.1 | 84.3 | > 100 | 45.7 | 37.6 µM | > 100 | 34.3 | > 100 | 76.1 | 92.2 | 
O=P1(C(O)/C=C/c2ccccc2)N(Cc2ccccc2)[C@@H]2CCCC[C@H]2N1Cc1ccccc1 (stereo partly specified) | 14 | 34.6 | 19.8 | 6.17 | 16.4 µM | 54.5 | 17.2 | 51.6 | 35.7 | 45.3 | 
COCC#C[C@@]1(O)CCCCC1CC(OC)OC (stereo partly specified) | > 100 | > 100 | > 100 | > 100 | > 100 µM | > 100 | > 100 | > 100 | > 100 | > 100 | 
CCOc1ccc(N=Nc2ccc3cc(/C(C)=N/NC(=O)/C(C#N)=C\c4ccc(N(CCC#N)CCC#N)cc4)c(=O)oc3c2)cc1 | > 10 | > 10 | > 10 | > 10 | > 10 µM | > 10 | > 10 | > 10 | > 10 | > 10 | 
COc1ccc(C2Oc3c(OC)cc(CCCO)cc3C2CO)cc1OC (stereo unspecified) | > 100 | > 100 | > 100 | > 100 | > 100 µM and 31.1 µM | > 100 | > 100 | > 100 | > 100 | > 100 | 36 µM and 12 µM
NC(Cc1[nH]nc2ccccc12)C(=O)O (stereo unspecified) | > 100 | > 100 | > 100 | > 100 | > 100 µM | > 100 | > 100 | > 100 | > 100 | > 100 | 
